The text below walks through data of patent US20210208130A1, “ASSAYS FOR CELL-BASED THERAPIES OR TREATMENTS” (The Regents of the University of California, priority 2018, published 2021).

The test system of the experiment is Human Retinoblastoma (hRB) Y79 (ATCC HTB-18) cells. In words: Fluorescence-based (CellTiter-Blue, resazurin) cell viability potency assay with sodium butyrate insult. The conditions noted are these: 2, 4, 8 mM sodium butyrate; 72 hours incubation. The source says:
In the following examples, Human Retinoblastoma (hRB) Y79 (ATCC® HTB-18™) cells were expanded and maintained for use by culturing in ATCC®-formulated RPMI-1640 medium supplemented with 20% fetal bovine serum. The cells were maintained according to ATCC® recommendations. Human retinal progenitor cells (hRPCs) and human retinal pigment epithelium cells (hRPE cells) were isolated from 18-20 week human fetuses and propagated in standard medium (SM) comprising Advanced DMEM/F12 with 1×N−2 supplement, 1×GlutaMax-1, 20 ng/ml human FGF-basic protein and 20 ng/ml human EGF protein.
In the following experiments, conditioned medium (CM) was collected from hRPCs, hRB cells or hRPE grown in SM for 48 hours (with replacement of the SM after 24 hours). Cells were harvested and counted after each CM collection.
First, 12.5×10^3, 2.5×10^4, 5.0×10^4, 1.0×10^5 and 2.0×10^5 Human Retinoblastoma (hRB) Y79 (ATCC® HTB-18™) cells were plated in five separate wells of a 96 well assay plate and incubated in 50 μl SM. […] Resorufin is highly fluorescent, meaning that the fluorescence signal generated can be used to determine the viability of the cells incubated with Resazurin.
The fluorescence of each well was measured after incubation with resazurin. Fluorescence signals were read at an excitation wavelength of 520 nm and an emission wavelength of 580-640 nm. […]
A general note: The colour change of resazurin is a common sign of viable cells or microbes.

With `CCCC(=O)[O-].[Na+]` [sodium butyrate], the “fluorescence signal (cell proliferation and viability) with higher concentrations of sodium butyrate” value is listed as “decreased fluorescence signals”.
